Data as given in US20240108623A1, “METHODS OF TREATING CANCER WITH POZIOTINIB” (BOARD OF REGENTS, THE UNIVERSITY OF TEXAS SYSTEM, priority 2021, published 2024).

Key:
Experiment in all cases: Ba/F3 cell drug screening, Cell Titer Glo
Format in all cases: cell-based
EGFR A763insLQEA = biological target: T1, EGFR A763insLQEA (Homo sapiens, UniProt P00533, INS763LQEA); details: Ba/F3 cells expressing EGFR A763insLQEA; 72 hours
T1 construct: expressed in transfected cells; host or cells: Ba/F3 (retroviral, pBabe-Puro based vector)
Description: (§1) Ba/F3 cell generation, drug screening, and IC50 approximations. Ba/F3 cells were obtained as a gift from Dr. Gordon Mills (MD Anderson Cancer Center), and maintained in RPMI (Sigma) containing 10% FBS, 1% penicillin/streptomycin, and 10 ng/ml recombinant mIL-3 (R&D Biosystems). To establish stable Ba/F3 cell lines, Ba/F3 cells were transduced with retroviruses containing mutant EGFR plasmids for 12-24 hours. Retroviruses were generated using Lipofectamine 2000 (Invitrogen) transfections of Phoenix 293T-ampho cells (Orbigen) with pBabe-Puro based vectors listed below in Table 6. Vectors were generated by GeneScript or Bioinnovatise using parental vectors from Addgene listed below in Table 6.
(§2) After 48-72 hours of transduction, 2 μg/ml puromycin (Invitrogen) was added to Ba/F3 cell lines in complete RPMI. To select for EGFR positive cell lines, cells were stained with PE-EGFR (Biolegend) and sorted by FACS. After sorting, EGFR positive cells were maintained in RPMI containing 10% FBS, 1% penicillin/streptomycin, and 1 ng/ml EGF to support cell viability. Drug screening was performed as previously described^41,42. Shortly, cells were plated in 384-well plates (Greiner Bio-One) at 2000-3000 cells per well in technical triplicate. Seven different concentrations of TKIs or DMSO vehicle were added to reach a final volume of 40 μL per well. After 72 hours, 11p L of Cell Titer Glo (Promega) was added to each well. Plates were incubated for a minimum of 10 minutes, and bioluminescence was determined using a FLUOstar OPTIMA plate reader (BMG LABTECH). Raw bioluminescence values were normalized to DMSO control treated cells, and values were plotted in GraphPad Prism. Non-linear regressions were used to fit the normalized data with a variable slope, and IC50 values were determined by GraphPad prism by interpolation of concentrations at 50% inhibition. Drug screens were performed in technical triplicate on each plate and either duplicate or triplicate biological replicates. Mutant to WT ratios (Mut/WT) for each drug were calculated by dividing the IC50 values of mutant cell lines by the average IC50 value of Ba/F3 cells expressing WT EGFR supplemented with 10 ng/ml EGF for each drug. Statistical differences between groups were determined by ANOVA as described in the figure legends.

EGFR E709A G719S = biological target: T2, EGFR E709A G719S (Homo sapiens, UniProt P00533, E709A/G719S); details: Ba/F3 cells expressing EGFR E709A G719S; 72 hours
T2 construct: expressed in transfected cells; host or cells: Ba/F3 (retroviral transduction, pBabe-Puro based vectors)
Description: as §1, §2

EGFR E709_T710del insD = biological target: T3, EGFR E709_T710del insD (Homo sapiens, UniProt P00533, DEL709-709/T710D); details: Ba/F3 cells expressing EGFR E709_T710del insD; 72 hours
T3 construct: expressed in transfected cells; host or cells: Ba/F3 (retroviral transduction, pBabe-Puro based vectors)
Description: as §1, §2

EGFR Ex19del T790M C797S = biological target: T4, EGFR Ex19del T790M C797S (Homo sapiens, UniProt P00533, C797S/DEL746-750/T790M); details: Ba/F3 cells expressing EGFR Ex19del T790M C797S; 72 hours
T4 construct: expressed in transfected cells; host or cells: Ba/F3 (retroviral transduction, pBabe-Puro based vectors)
Description: as §1, §2

EGFR Ex19del T790M L718V = biological target: T5, EGFR Ex19del T790M L718V (Homo sapiens, UniProt P00533, DEL746-750/L718V/T790M); details: Ba/F3 cells expressing EGFR Ex19del T790M L718V; 72 hours
T5 construct: expressed in transfected cells; host or cells: Ba/F3 (retroviral transduction, pBabe-Puro based vectors)
Description: as §1, §2

EGFR Ex19del T854I = biological target: T6, EGFR Ex19del T854I (Homo sapiens, UniProt P00533, DEL746-750/T854I); details: Ba/F3 cells expressing EGFR Ex19del T854I; 72 hours
T6 construct: expressed in transfected cells; host or cells: Ba/F3 (murine pro-B cells), retroviral transduction with pBabe-Puro based vectors
Description: as §1, §2

EGFR G719S = biological target: T7, EGFR G719S (Homo sapiens, UniProt P00533, G719S); details: Ba/F3 cells expressing EGFR G719S; 72 hours
T7 construct: expressed in transfected cells; host or cells: Ba/F3 (retroviral transduction, pBabe-Puro based vectors)
Description: as §1, §2

EGFR G724S = biological target: T8, EGFR G724S (Homo sapiens, UniProt P00533, G724S); details: Ba/F3 cells expressing EGFR G724S; 72 hours
T8 construct: expressed in transfected cells; host or cells: Ba/F3 (retroviral transduction, pBabe-Puro based vectors)
Description: as §1, §2

EGFR L718Q T790M = biological target: T9, EGFR L718Q T790M (Homo sapiens, UniProt P00533, L718Q/T790M); details: Ba/F3 cells expressing EGFR L718Q T790M; 72 hours
T9 construct: expressed in transfected cells; host or cells: Ba/F3 (retroviral transduction, pBabe-Puro based vectors)
Description: as §1, §2

EGFR L718V = biological target: T10, EGFR L718V (Homo sapiens, UniProt P00533, L718V); details: Ba/F3 cells expressing EGFR L718V; 72 hours
T10 construct: expressed in transfected cells; host or cells: Ba/F3 (retroviral transduction, pBabe-Puro based vectors)
Description: as §1, §2

EGFR L747P = biological target: T11, EGFR L747P (Homo sapiens, UniProt P00533, L747P); details: Ba/F3 cells expressing EGFR L747P; 72 hours
T11 construct: expressed in transfected cells; host or cells: Ba/F3 (retroviral transduction, pBabe-Puro based vectors)
Description: as §1, §2

EGFR L833F = biological target: T12, EGFR L833F (Homo sapiens, UniProt P00533, L833F); details: Ba/F3 cells expressing EGFR L833F; 72 hours
T12 construct: expressed in transfected cells; host or cells: Ba/F3 (retroviral, pBabe-Puro based vector)
Description: as §1, §2

EGFR L833V = biological target: T13, EGFR L833V (Homo sapiens, UniProt P00533, L833V); details: Ba/F3 cells expressing EGFR L833V; 72 hours
T13 construct: expressed in transfected cells; host or cells: Ba/F3 (retroviral, pBabe-Puro based vector)
Description: as §1, §2

EGFR L861R = biological target: T14, EGFR L861R (Homo sapiens, UniProt P00533, L861R); details: Ba/F3 cells expressing EGFR L861R; 72 hours
T14 construct: expressed in transfected cells; host or cells: Ba/F3 (retroviral, pBabe-Puro based vector; created by GeneScript from EGFR WT)
Description: as §1, §2

EGFR S784F = biological target: T15, EGFR S784F (Homo sapiens, UniProt P00533, S784F); details: Ba/F3 cells expressing EGFR S784F; 72 hours
T15 construct: expressed in transfected cells; host or cells: Ba/F3 (retroviral, pBabe-Puro based vector; created by GeneScript from EGFR WT)
Description: as §1, §2

EGFR S811F = biological target: T16, EGFR S811F (Homo sapiens, UniProt P00533, S811F); details: Ba/F3 cells expressing EGFR S811F; 72 hours
T16 construct: expressed in transfected cells; host or cells: Ba/F3 (retroviral, pBabe-Puro based vector; created by GeneScript from EGFR WT)
Description: as §1, §2

Q: Which “Response of Cells Comprising Classical-Like EGFR Mutations to Second-Generation TKIs” value (EGFR A763insLQEA) does the source give for `C=CC(=O)N1CCC(Oc2cc3c(Nc4ccc(Cl)c(Cl)c4F)ncnc3cc2OC)CC1` [Poziotinib] here?
A: 0.01607

Q: What about the “Response of Cells Comprising PACC EGFR Mutations to Second-Generation TKIs” value (EGFR E709A G719S) of the same compound?
A: 0.01612

Q: And the “Response of Cells Comprising PACC EGFR Mutations to Second-Generation TKIs” value (EGFR E709_T710del insD)?
A: 0.06231

Q: And the “Response of Cells Comprising T790M-like-R EGFR Mutations to Second-Generation TKIs” value (EGFR Ex19del T790M C797S)?
A: 1862

Q: What about the “Response of Cells Comprising T790M-like-S EGFR Mutations to Second-Generation TKIs” value (EGFR Ex19del T790M L718V) of the same compound?
A: 15.89

Q: And the “Response of Cells Comprising PACC EGFR Mutations to Second-Generation TKIs” value (EGFR Ex19del T854I)?
A: 0.008664

Q: What about the “Response of Cells Comprising PACC EGFR Mutations to Second-Generation TKIs” value (EGFR G719S) of the same compound?
A: 0.04616

Q: And the “Response of Cells Comprising PACC EGFR Mutations to Second-Generation TKIs” value (EGFR G724S)?
A: 0.2246

Q: And the “Response of Cells Comprising T790M-like-R EGFR Mutations to Second-Generation TKIs” value (EGFR L718Q T790M)?
A: 6.487

Q: What about the “Response of Cells Comprising PACC EGFR Mutations to Second-Generation TKIs” value (EGFR L718V) of the same compound?
A: 0.2403

Q: What about the “Response of Cells Comprising PACC EGFR Mutations to Second-Generation TKIs” value (EGFR L747P) of the same compound?
A: 0.1338

Q: What about the “Response of Cells Comprising Classical-Like EGFR Mutations to Second-Generation TKIs” value (EGFR L833F) of the same compound?
A: 0.01839

Q: And the “Response of Cells Comprising Classical-Like EGFR Mutations to Second-Generation TKIs” value (EGFR L833V)?
A: 0.004716

Q: And the “Response of Cells Comprising Classical-Like EGFR Mutations to Second-Generation TKIs” value (EGFR L861R)?
A: 0.01648

Q: And the “Response of Cells Comprising Classical-Like EGFR Mutations to Second-Generation TKIs” value (EGFR S784F)?
A: 0.08572

Q: And the “Response of Cells Comprising Classical-Like EGFR Mutations to Second-Generation TKIs” value (EGFR S811F)?
A: 0.2983
